From PubChem BioAssay AID256 (DTP/NCI, 2004)
Values joined by “and” are separate entries in the source; they are usually repeats but may differ in a detail not shown here. Identical values can stand only once. Inconclusive results and toxic doses are left out. Rule for the calls: active = survival T/C of 150% or more; inactive = T/C below 125% in these data.

System: CD2F1 mice, L1210 leukemia ip, survival T/C
Experiment: NCI In Vivo Anticancer Drug Screen. Data for tumor model L1210 Leukemia (intraperitoneal) in CD2F1 (CDF1) mice
Details: higher = longer survival
Summary of the method: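 Transplantable tumor in mice; compound-treated vs vehicle-treated groups. Read-out = treated/control ratio of the measured endpoint.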

Measured: T/C

COC1C(O)CC(=O)OC(C)C/C=C/C=C/C(OC2CCC(N(C)C)C(C)O2)C(C)CC(CC=O)C1OC1OC(C)C(OC2CC(C)(O)C(O)C(C)O2)C(N(C)C)C1O (stereo unspecified)
inactive: endpoint: mean survival time, dose: 6.3 mg/kg/injection, schedule: Q03HX024 (ip), vehicle: saline 100 % of control | endpoint: mean survival time, dose: 12.5 mg/kg/injection, schedule: Q03HX008 (ip), vehicle: saline 100 % of control | endpoint: mean survival time, dose: 12.5 mg/kg/injection, schedule: Q03HX024 (ip), vehicle: saline 100 % of control | endpoint: mean survival time, dose: 25.0 mg/kg/injection, schedule: Q03HX008 (ip), vehicle: saline 97 % of control | endpoint: mean survival time, dose: 25.0 mg/kg/injection, schedule: Q03HX024 (ip), vehicle: saline 101 % of control | endpoint: mean survival time, dose: 50.0 mg/kg/injection, schedule: Q01DX009 (ip), vehicle: saline 98 % of control | endpoint: mean survival time, dose: 50.0 mg/kg/injection, schedule: Q03HX008 (ip), vehicle: saline 100 % of control | endpoint: mean survival time, dose: 50.0 mg/kg/injection, schedule: Q03HX024 (ip), vehicle: saline 103 % of control | endpoint: mean survival time, dose: 100.0 mg/kg/injection, schedule: Q01DX001 (ip), vehicle: saline 102 % of control | endpoint: mean survival time, dose: 100.0 mg/kg/injection, schedule: Q01DX009 (ip), vehicle: saline 96 % of control | endpoint: mean survival time, dose: 100.0 mg/kg/injection, schedule: Q03HX008 (ip), vehicle: saline 97 % of control | endpoint: mean survival time, dose: 100.0 mg/kg/injection, schedule: Q04DX003 (ip), vehicle: saline 98 % of control | endpoint: mean survival time, dose: 200.0 mg/kg/injection, schedule: Q01DX001 (ip), vehicle: saline 98 % of control | endpoint: mean survival time, dose: 200.0 mg/kg/injection, schedule: Q01DX009 (ip), vehicle: saline 102 % of control | endpoint: mean survival time, dose: 200.0 mg/kg/injection, schedule: Q04DX003 (ip), vehicle: saline 100 % of control | endpoint: mean survival time, dose: 400.0 mg/kg/injection, schedule: Q01DX001 (ip), vehicle: saline 106 % of control | endpoint: mean survival time, dose: 400.0 mg/kg/injection, schedule: Q01DX009 (ip), vehicle: saline 98 % of control | endpoint: mean survival time, dose: 400.0 mg/kg/injection, schedule: Q04DX003 (ip), vehicle: saline 100 % of control

CSc1nc(SC)c2cnn(C3OC(CO)C(O)C3O)c2n1 (stereo unspecified)
inactive: endpoint: median survival time, dose: 3.12 mg/kg/injection, schedule: Q01DX005 (ip), vehicle: saline with Tween-80 95 % of control | endpoint: median survival time, dose: 6.25 mg/kg/injection, schedule: Q01DX005 (ip), vehicle: saline with Tween-80 100 % of control | endpoint: median survival time, dose: 12.5 mg/kg/injection, schedule: Q01DX005 (ip), vehicle: saline with Tween-80 102 % of control and 103 % of control | endpoint: median survival time, dose: 25.0 mg/kg/injection, schedule: Q01DX005 (ip), vehicle: saline with Tween-80 102 % of control and 101 % of control and 97 % of control | endpoint: median survival time, dose: 50.0 mg/kg/injection, schedule: Q01DX005 (ip), vehicle: saline with Tween-80 102 % of control and 101 % of control and 97 % of control | endpoint: median survival time, dose: 100.0 mg/kg/injection, schedule: Q01DX005 (ip), vehicle: saline with Tween-80 102 % of control and 95 % of control | endpoint: median survival time, dose: 200.0 mg/kg/injection, schedule: Q01DX005 (ip), vehicle: saline with Tween-80 93 % of control and 95 % of control

CCOC1([N+](=O)[O-])c2ccccc2-c2nc3ccccc3cc21 (stereo unspecified)
inactive: endpoint: mean survival time, dose: 200.0 mg/kg/injection, schedule: Q04DX003 (ip), vehicle: Klucel (hydroxypropylcellulose) (HPC) 97 % of control
